IC50 data for 21 compounds are collected here from patent US8017612B2, “Piperazine compound and use thereof as a HCV polymerase inhibitor” (priority 2006, dated 2011).

The target of assay [1] is T1, HCV polymerase (NS5B) type 1b (Hepatitis C virus genotype 1b, UniProt P26663).
T1 construct: a region encoding NS5B (J Virol 1991 March, 65(3), 1105-13, 544 amino acids after deletion of 47 amino acids on the C-terminal); 6xHis (C); made in house; host or cells: Escherichia coli
Briefly: Assay of enzyme (HCV polymerase) inhibitory activity, type 1b enzyme. It is filed as biochemical, HCV BK strain (type 1b). Conditions: HCV polymerase inhibitory activity (IC50), 1b, type 1b enzyme 0.5 μg/ml, 25° C., 60 min. The procedure, abridged: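 His-tagged, C-terminally truncated NS5B (BK strain, 1b; 0.5 μg/ml) incubated with compound 60 min at 25 °C on 3′UTR-derived substrate RNA (5 μg/ml), 50 μM ATP/GTP/CTP, 2 μM UTP plus [3H]UTP, pH 7.5. Acid-precipitated RNA counted; IC50 from radioactivity with and without compound.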

Assay [2] deals with T2, HCV polymerase (NS5B) type 1a (Hepatitis C virus genotype 1a, UniProt P26664).
T2 construct: made in house; host or cells: Escherichia coli (by the 'similar method' of the 1b enzyme)
Briefly: Assay of enzyme (HCV polymerase) inhibitory activity, type 1a enzyme. It counts as biochemical, HCV type 1a (cloned from the blood of patients). Particulars: HCV polymerase inhibitory activity (IC50), 1a, type 1a enzyme 1.5 μg/ml, 25° C., 60 min. The procedure, abridged:
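His-tagged NS5B, C-terminal 47 residues deleted, type 1a at 1.5 μg/ml, with 5 μg/ml HCV 3′UTR substrate RNA, 50 μM ATP/GTP/CTP, 2 μM UTP plus [3H]UTP, pH 7.5 Tris, 5 mM MgCl2; 60 min at 25° C. TCA-precipitated RNA counted by scintillation; IC50 from radioactivity with vs. without compound.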

For `CCCc1ccc(CNC(=O)[C@H]2CN(c3nc(C)c(CN4CCCC4)s3)CCN2S(=O)(=O)c2ccc(OC(F)(F)F)cc2)cc1` [Example 531, (R)-4-(4-methyl-5-pyrrolidin-1-ylmethyl-thiazol-2-yl)-1-(4-trifluoromethoxy-benzenesulfonyl)-piperazine-2-carboxylic acid 4-propyl-benzylamide], the IC50 in assay [1] and in assay [2] was < 100 nM throughout.

On to `CCOC(=O)Cn1nnc(CC(=O)N2CCN(S(=O)(=O)c3ccc(OC(F)(F)F)cc3)[C@@H](C(=O)NCc3ccc(C(F)(F)CC)cc3)C2)n1` [Example 532, (5-{2-[(R)-3-[4-(1,1-difluoro-propyl)-benzylcarbamoyl]-4-(4-trifluoromethoxy-benzenesulfonyl)-piperazin-1-yl]-2-oxo-ethyl}-tetrazol-2-yl)-acetic acid ethyl ester], for which the IC50 in assay [1] and in assay [2] was < 100 nM throughout.

For `CCOC(=O)Cn1nnnc1CC(=O)N1CCN(S(=O)(=O)c2ccc(OC(F)(F)F)cc2)[C@@H](C(=O)NCc2ccc(C(F)(F)CC)cc2)C1` [Example 533, (5-{2-[(R)-3-[4-(1,1-difluoro-propyl)-benzylcarbamoyl]-4-(4-trifluoromethoxy-benzenesulfonyl)-piperazin-1-yl]-2-oxo-ethyl}-tetrazol-1-yl)-acetic acid ethyl ester], the 50% inhibitory concentration (IC50) in assay [1] and in assay [2] was > 1000 nM in each case.

Consider `CCCc1ccc(CNC(=O)[C@H]2CN(c3nc4c(s3)CN(C(=O)OCc3ccccc3)CC4)CCN2S(=O)(=O)c2ccc(OC(F)(F)F)cc2)cc1` [Example 534, 2-[(R)-3-(4-propyl-benzylcarbamoyl)-4-(4-trifluoromethoxy-benzenesulfonyl)-piperazin-1-yl]-6,7-dihydro-4H-thiazolo[5,4-c]pyridine-5-carboxylic acid benzyl ester], for which the IC50 in assay [1] and in assay [2] was < 100 nM throughout.

As for `CCCc1ccc(S(=O)(=O)N2CCN(c3nc(C(=O)O)c(CO)s3)C[C@@H]2C(=O)NCc2ccc(C(C)C)cc2)cc1` [Example 535, 5-hydroxymethyl-2-[(R)-3-(4-isopropyl-benzylcarbamoyl)-4-(4-propyl-benzenesulfonyl)-piperazin-1-yl]-thiazole-4-carboxylic acid], the IC50 in assay [1] and in assay [2] was < 100 nM throughout.

Turning to `CCCc1ccc(CNC(=O)[C@H]2CN(c3nc(C(=O)O)c(COC)s3)CCN2S(=O)(=O)c2ccc(OC(F)(F)F)cc2)cc1` [Example 536, 5-methoxymethyl-2-[(R)-3-(4-propyl-benzylcarbamoyl)-4-(4-trifluoromethoxy-benzenesulfonyl)-piperazin-1-yl]-thiazole-4-carboxylic acid], the IC50 (in general, the concentration that inhibits the measured activity by half) was < 100 nM in assay [1] and 100 to 1000 nM in assay [2].

Consider `CCCc1ccc(CNC(=O)[C@H]2CN(c3nc(C(=O)O)c(CO)s3)CCN2S(=O)(=O)c2ccc(OC(F)(F)F)cc2)cc1` [Example 537, 5-hydroxymethyl-2-[(R)-3-(4-propyl-benzylcarbamoyl)-4-(4-trifluoromethoxy-benzenesulfonyl)-piperazin-1-yl]-thiazole-4-carboxylic acid], for which the IC50 in assay [1] and in assay [2] was < 100 nM each time.

With `CCCc1ccc(CNC(=O)[C@H]2CN(c3cnc(CN(C)C)cn3)CCN2S(=O)(=O)c2ccc(CC)cc2)cc1` [Example 538, (R)-5′-dimethylaminomethyl-4-(4-ethyl-benzenesulfonyl)-3,4,5,6-tetrahydro-2H-[1,2′]bipyrazinyl-3-carboxylic acid 4-propyl-benzylamide], the IC50 in assay [1] and in assay [2] was < 100 nM throughout.

For `CCC(F)(F)c1ccc(CNC(=O)[C@H]2CN(C(=O)Nn3cnnc3)CCN2S(=O)(=O)c2ccc(OC(F)(F)F)cc2)cc1` [Example 539, (R)-4-(4-trifluoromethoxy-benzenesulfonyl)-piperazine-1,3-dicarboxylic acid 3-[4-(1,1-difluoro-propyl)-benzylamide] 1-[1,2,4]triazol-4-ylamide], the IC50 in assay [1] and in assay [2] was 100 to 1000 nM each time.

With `CCC(F)(F)c1ccc(CNC(=O)[C@H]2CN(C(=O)n3cnc(N)n3)CCN2S(=O)(=O)c2ccc(OC(F)(F)F)cc2)cc1` [Example 540, (R)-4-(3-amino-[1,2,4]triazole-1-carbonyl)-1-(4-trifluoromethoxy-benzenesulfonyl)-piperazine-2-carboxylic acid 4-(1,1-difluoro-propyl)-benzylamide], the concentration for half-maximal inhibition (IC50) in assay [1] and in assay [2] was > 1000 nM throughout.

Take `CCC(F)(F)c1ccc(CNC(=O)[C@H]2CN(C(=O)Cn3nnnc3C(C)C)CCN2S(=O)(=O)c2ccc(OC(F)(F)F)cc2)cc1` [Example 541, (R)-4-[2-(5-isopropyl-tetrazol-1-yl)-acetyl]-1-(4-trifluoromethoxy-benzenesulfonyl)-piperazine-2-carboxylic acid 4-(1,1-difluoro-propyl)-benzylamide]: the IC50 in assay [1] and in assay [2] was 100 to 1000 nM each time.

Take `CCC(F)(F)c1ccc(CNC(=O)[C@H]2CN(C(=O)Cn3nnc(C(C)C)n3)CCN2S(=O)(=O)c2ccc(OC(F)(F)F)cc2)cc1` [Example 542, (R)-4-[2-(5-isopropyl-tetrazol-2-yl)-acetyl]-1-(4-trifluoromethoxy-benzenesulfonyl)-piperazine-2-carboxylic acid 4-(1,1-difluoro-propyl)-benzylamide]: the IC50 in assay [1] and in assay [2] was < 100 nM throughout.

Consider `CCC(F)(F)c1ccc(CNC(=O)[C@H]2CN(C(=O)Cn3nnc(CC(=O)N4CCOCC4)n3)CCN2S(=O)(=O)c2ccc(OC(F)(F)F)cc2)cc1` [Example 543, (R)-4-{2-[5-(2-morpholin-4-yl-2-oxo-ethyl)-tetrazol-2-yl]-acetyl}-1-(4-trifluoromethoxy-benzenesulfonyl)-piperazine-2-carboxylic acid 4-(1,1-difluoro-propyl)-benzylamide], for which the IC50 in assay [1] and in assay [2] was < 100 nM each time.

As to `CCCc1ccc(CNC(=O)[C@H]2CN(c3cnc(NS(C)(=O)=O)cn3)CCN2S(=O)(=O)c2ccc(OC(F)(F)F)cc2)cc1` [Example 544, (R)-5′-methanesulfonylamino-4-(4-trifluoromethoxy-benzenesulfonyl)-3,4,5,6-tetrahydro-2H-[1,2′]bipyrazinyl-3-carboxylic acid 4-propyl-benzylamide], the IC50 in assay [1] and in assay [2] was < 100 nM each time.

With `CC(C)(C)c1ccc(CNC(=O)[C@H]2CN(c3cnc(CO)cn3)CCN2S(=O)(=O)c2ccc(OC(F)(F)F)cc2)cc1` [Example 545, (R)-5′-hydroxymethyl-4-(4-trifluoromethoxy-benzenesulfonyl)-3,4,5,6-tetrahydro-2H-[1,2′]bipyrazinyl-3-carboxylic acid 4-tert-butyl-benzylamide], the IC50 in assay [1] and in assay [2] was < 100 nM in each case.

For the compound `CCCc1ccc(CNC(=O)[C@H]2CN(c3ccc(O)nn3)CCN2S(=O)(=O)c2ccc(OC(F)(F)F)cc2)cc1` [Example 546, (R)-4-(6-hydroxy-pyridazin-3-yl)-1-(4-trifluoromethoxy-benzenesulfonyl)-piperazine-2-carboxylic acid 4-propyl-benzylamide], the IC50 in assay [1] and in assay [2] was < 100 nM throughout.

In the case of `CCCc1ccc(CNC(=O)[C@H]2CN(c3ccc(C(N)=O)nn3)CCN2S(=O)(=O)c2ccc(OC(F)(F)F)cc2)cc1` [Example 547, 6-[(R)-3-(4-propyl-benzylcarbamoyl)-4-(4-trifluoromethoxy-benzenesulfonyl)-piperazin-1-yl]-pyridazine-3-carboxylic acid amide], the IC50 in assay [1] and in assay [2] was < 100 nM throughout.

Regarding `CCCc1ccc(CNC(=O)[C@H]2CN(c3nc4c(s3)CN(C)CC4)CCN2S(=O)(=O)c2ccc(OC(F)(F)F)cc2)cc1` [Example 548, (R)-4-(5-methyl-4,5,6,7-tetrahydro-thiazolo[5,4-c]pyridin-2-yl)-1-(4-trifluoromethoxy-benzenesulfonyl)-piperazine-2-carboxylic acid 4-propyl-benzylamide], the IC50 in assay [1] and in assay [2] was < 100 nM in each case.

Regarding `CCCc1ccc(CNC(=O)[C@H]2CN(c3cnc(CO)c(N)n3)CCN2S(=O)(=O)c2ccc(OC(F)(F)F)cc2)cc1` [Example 549, (R)-6′-amino-5′-hydroxymethyl-4-(4-trifluoromethoxy-benzenesulfonyl)-3,4,5,6-tetrahydro-2H-[1,2′]bipyrazinyl-3-carboxylic acid 4-propyl-benzylamide], the IC50 in assay [1] and in assay [2] was < 100 nM throughout.

In the case of `CC(=O)N1CCN(S(=O)(=O)c2ccc(OC(F)(F)F)cc2)[C@@H](C(=O)NCc2ccc(C(F)(F)C(F)(F)F)cc2)C1` [Example 550, (R)-4-acetyl-1-(4-trifluoromethoxy-benzenesulfonyl)-piperazine-2-carboxylic acid 4-pentafluoroethyl-benzylamide], the IC50 in assay [1] and in assay [2] was 100 to 1000 nM in each case.

For the compound `Cc1nnn(CC(=O)N2CCN(S(=O)(=O)c3ccc(OC(F)(F)F)cc3)[C@@H](C(=O)NCc3ccc(C(F)(F)C(F)(F)F)cc3)C2)n1` [Example 551, (R)-4-[2-(5-methyl-tetrazol-2-yl)-acetyl]-1-(4-trifluoromethoxy-benzenesulfonyl)-piperazine-2-carboxylic acid 4-pentafluoroethyl-benzylamide], the IC50 in assay [1] and in assay [2] was 100 to 1000 nM in each case.
